Test results reported in US6235707A, “Anticoagulant peptidyl-arginine aldehyde derivatives” (Gyogyszerkutato Intezet Kft., priority 1996, dated 2001).

Experiments:
thrombin = thrombin (Homo sapiens, UniProt P00734); experiment: thrombin time (TT) plasma clotting test; format: biochemical; conditions: Table 3; twofold prolongation compared to control; read-out: A: anticoagulant IC50, TT
Experimental: Anticoagulant activity (i.e. inhibition of the proteolytic reactions in the process) is measured by anticoagulant tests, e.g. in the thrombin time (TT), activated partial thromboplastin time (APTT) and prothrombin time (PT) tests [E. J. W. Bovie et al., Mayo Clinic Laboratory Manual of Haemostasis; W. B. Saunders Co., Philadelphia (1971)]. Plasma, inhibited in spontaneous coagulation, e.g. citrate-plasma, is made to coagulate and the required coagulation time is measured. Upon the action of anticoagulants the coagulation time is prolonged proportionally to the inhibition of the reaction(s) in the process. The anticoagulant effect can be characterised by the substance concentration required to prolong the coagulation time twofold compared to the control (IC50). The effect of anticoagulants on individual coagulant proteases is measured by the amidolytic method [R. Lottenberg et al., Methods in Enzymol. 80, 341 (1981); G. Cleason, Blood Coagulation and Fibrinolysis 5, 411 (1994)]. The isolated active factor (e.g. thrombin, fXa) and its chromogen or fluorogen peptide-amide substrate are reacted in the presence or absence of the inhibitor, resp. The enzyme inhibiting action is characterised by the inhibitory constant (IC50) measured during amidolysis.
In the TT test coagulation is initiated by the thrombin added to the citrate plasma. In the system 22 pmol/ml of thrombin is functioning and its inhibition can be measured on the fibrinogen (one of the natural substrates of thrombin) in the presence of plasma components. In the APTT and PT tests the full coagulation process takes place. Depending on the activator fX is activated either by the extrinsic or the intrinsic pathway. The generated fXa activates prothrombin to thrombin which, in turn, triggers plasma coagulation. The coagulation time is prolonged if the enzymes or one of them is inhibited by the inhibitor. In the APTT and PT tests at most 40 pmol/ml Xa can be generated (this is the full amount of factor X present in both systems) while 150 pmol/ml (APTT) and 350 pmol/ml (PT) of thrombin are generated [B. Kaiser et al., Thromb. Res. 65, 157 (1992)].
The in vitro anticoagulant effects of the compounds of general formula (I) was measured by the prothrombin time (PT), activated partial thromboplastin time (APTT) and thrombin time (TT) tests [D. Bagdy et al., Thromb. Haemost. 67, 325 (1992)]. The fxa-inhibiting effect of the compounds was also determined using the Bz-Ile-Glu-Gly-Arg-pNA chromogen substrate (see method M6).

[1] = target: T1, fibrin gel-bound thrombin (Homo sapiens, UniProt P00734); experiment: inhibition of fibrin gel-bound thrombin (Methods M4, M5); format: biochemical; conditions: human fibrinogen clotted with human thrombin; Tos-Gly-Pro-Arg-pNA substrate
T1 construct: purchased SIGMA
Experimental: Plasma-clot was obtained by recalcificating platelet-rich human plasma, and fibrin gel by clotting human fibrinogen with human thrombin. For the activity measures of fXa and thrombin Z-D-Arg-Gly-Arg-pNA or Tos-Gly-Pro-Arg-pNA substrates were used in agreement with Methods M1-M3.
Preparation of Fibrin Clots
a) To each reaction vessel 200 μl of human fibrinogen (SIGMA), 25 μl of 25 NIH/E/ml human thrombin (SIGMA) and 40 μl of 100 mM CaCl2 solution is placed and the mixtures are allowed to stand for 1 hour at 20-22° C. The fibrin clots are washed with isotonic NaCl-solution (3×2 ml) under gentle stirring to remove traces of thrombin and sedimented for 5 min. The effectiveness of the washing can be checked by the method M1/c.
Determination of Inhibition of Fibrin-clot Bound Thrombin
a) 0.1-1.0-10 and 100 μg/ml solutions are made from the peptide inhibitors with Hepes/NaCl buffer (0.001 M Hepes and 0.1 M NaCl, pH=7.4).
b) Measurements are continued according to M3/b.

CCOC(=O)N[C@H](CC1CCC1)C(=O)N1CCC[C@H]1C(=O)N[C@H](C=O)CCCNC(=N)N [Example 1, Ethoxycarbonyl-3-cyclobutyl-D-alanyl-L-prolyl-L-arginine aldehyde]
IC50 (thrombin): 0.11 µM
IC50 [1]: 0.32 µM
